This is an account of results in PubChem BioAssay AID2821 (Broad Institute, 2010).

The structures appear in SMILES notation. Calls of active or inactive are those of the source.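 Rule for the calls: active = IC50 no more than a set number of log units above the top dose tested; inconclusive = flat fit with 30 to 70% inhibition, or a poor fit; inactive = IC50 beyond that set limit.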

For this experiment, the target named is Serine/threonine-protein kinase 33 (Homo sapiens) (UniProt Q9BYT3). Put plainly: STK33 kinase inhibitors, dose response, biochemical, luminescence, cell-free, retest (AID 2821). Particulars: purified STK33, MBP substrate, ADP-Glo luminescence.
Chain of Serine/threonine-protein kinase 33 (Homo sapiens) (Q9BYT3 whole entry, looked up): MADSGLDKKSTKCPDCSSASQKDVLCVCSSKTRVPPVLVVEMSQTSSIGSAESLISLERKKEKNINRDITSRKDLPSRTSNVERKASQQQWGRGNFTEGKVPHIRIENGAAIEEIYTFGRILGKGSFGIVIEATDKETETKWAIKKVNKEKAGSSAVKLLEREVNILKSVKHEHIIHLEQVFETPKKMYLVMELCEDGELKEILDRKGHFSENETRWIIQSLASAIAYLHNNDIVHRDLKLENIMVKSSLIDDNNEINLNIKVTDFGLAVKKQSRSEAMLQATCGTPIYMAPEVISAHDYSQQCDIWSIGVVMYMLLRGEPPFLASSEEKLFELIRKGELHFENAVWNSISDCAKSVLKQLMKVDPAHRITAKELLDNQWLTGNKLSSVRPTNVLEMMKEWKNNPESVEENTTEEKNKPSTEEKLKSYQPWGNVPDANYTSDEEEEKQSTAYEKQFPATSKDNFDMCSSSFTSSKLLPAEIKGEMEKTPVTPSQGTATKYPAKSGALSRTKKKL
In the case of `O=C1C(c2ccncc2)=C(O)c2ccccc21`, the IC50 is 10.3 µM. Take `O=c1c(/C=N/O)c(Nc2ccccc2)nc2ccccn12`: the IC50 was 6.22 µM. Regarding `Oc1ccc(/C=N/Nc2ccnc3cc(Cl)ccc23)cc1O`, the half-inhibitory concentration (IC50) is 3.05 µM. For `N#C/C(=C(/O)c1ccco1)c1nc2ccccc2[nH]1`, the half-inhibitory concentration (IC50) was 8.49 µM. In the case of `Oc1ccc(/C=C/c2ccnc3ccccc23)cc1` it was 11.5 µM. Turning to `COc1cc(/C=C/C(O)=C/C(=O)/C=C/c2ccc(O)cc2)ccc1O`, the IC50 was 1.75 µM. `COC(=O)c1cccc2c1-c1ccccc1/C2=N/O`: the IC50 was 11.8 µM.

For `COc1cc(N=Cc2c(O)[nH]c3ccccc23)cc(OC)c1OC`, the half-maximal inhibitory concentration (IC50) is 4.93 µM. In the case of `CCn1c2ccc(/C(C)=N\O)cc2c2cc(/C(C)=N\O)ccc21` it was > 12 µM (inactive). On to `CCCn1c2ccc(/C(C)=N\O)cc2c2cc(/C(C)=N/O)ccc21`, for which the half-inhibitory concentration (IC50) is 2.48 µM. Under `COc1ccc(N=Cc2c(O)[nH]c3ccccc23)cc1OC` stands 5.22 µM. Regarding `Oc1[nH]c2ccccc2c1C=Nc1ccc2c(c1)OCO2`, the concentration for half-maximal inhibition (IC50) was 11.3 µM. As to `COc1cc(C2c3sc(=O)[nH]c3SC3C(=O)N(c4ccc(C)cc4)C(=O)C32)ccc1O` (stereo not given), the IC50 was > 12 µM (inactive). On to `COc1cc(/C=C/C(=O)/C=C(O)/C=C/c2ccc(O)c(OC)c2)ccc1O`, for which the IC50 is 0.71 µM.

As for `NS(=O)(=O)c1ccc2c(c1)C(=NO)c1cc(S(N)(=O)=O)ccc1-2`, the IC50 was 4.91 µM.
